Measured values from the supplement of paper PMC10307832.

Experiments:
Assay in all cases: relative viability (nuclei count vs DMSO), 5 days (fraction); higher = more cells survive
HCC-366 = system: HCC-366
How it was run: (§1)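 After 5 days of treatment, lung cancer cells in 1536-well plates were fixed and stained in a single step (final 0.05% Triton X-100, 1% formaldehyde, 1 ug/ml Hoechst) and their nuclei counted on 4× images. Treatment had been applied by pin tool the day after seeding as one drug alone or as a fixed anchor-drug dose with five library-drug doses (not always all listed) in √10 steps. Relative viability is the nuclei count of treated wells divided by that of vehicle wells, and values are medians of duplicate plates.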

NCI-H647 = system: NCI-H647
How it was run: as §1

SK-LU-1 = system: SK-LU-1
How it was run: as §1

NCI-H2170 = system: NCI-H2170
How it was run: as §1

HCC-827 = system: HCC-827
How it was run: as §1

NCI-H1734 = system: NCI-H1734
How it was run: as §1

NCI-H1355 = system: NCI-H1355
How it was run: as §1

EKVX = system: EKVX
How it was run: as §1

NCI-H1437 = system: NCI-H1437
How it was run: as §1

NCI-H661 = system: NCI-H661
How it was run: as §1

NCI-H1993 = system: NCI-H1993
How it was run: as §1

SK-MES-1 = system: SK-MES-1
How it was run: as §1

NCI-H1395 = system: NCI-H1395
How it was run: as §1

NCI-H2342 = system: NCI-H2342
How it was run: as §1

HARA = system: HARA
How it was run: as §1

NCI-H522 = system: NCI-H522
How it was run: as §1

LOU-NH91 = system: LOU-NH91
How it was run: as §1

NCI-H2087 = system: NCI-H2087
How it was run: as §1

NCI-H2405 = system: NCI-H2405
How it was run: as §1

BEN = system: BEN
How it was run: as §1

NCI-H2009 = system: NCI-H2009
How it was run: as §1

O=c1cc(N2CCOCC2)oc2c(-c3cccc4c3sc3ccccc34)cccc12 + O=C(CCCCCCC(=O)Nc1ccccc1)NO [Vorinostat] (partner 1 µM)
relative viability (HCC-366; first compound 0.01 µM): 0.386 | relative viability (HCC-366; first compound 0.03162 µM): 0.362 | relative viability (HCC-366; first compound 0.1 µM): 0.339 | relative viability (HCC-366; first compound 0.3162 µM): 0.395 | relative viability (HCC-366; first compound 1 µM): 0.371 | relative viability (NCI-H647; first compound 0.01 µM): 0.662 | relative viability (NCI-H647; first compound 0.03162 µM): 0.708 | relative viability (NCI-H647; first compound 0.1 µM): 0.462 | relative viability (NCI-H647; first compound 0.3162 µM): 0.695 | relative viability (NCI-H647; first compound 1 µM): 0.757 | relative viability (SK-LU-1; first compound 0.01 µM): 0.79 | relative viability (SK-LU-1; first compound 0.03162 µM): 0.707 | relative viability (SK-LU-1; first compound 0.1 µM): 0.751 | relative viability (SK-LU-1; first compound 0.3162 µM): 0.778 | relative viability (SK-LU-1; first compound 1 µM): 0.733 | relative viability (NCI-H2170; first compound 0.01 µM): 0.804 | relative viability (NCI-H2170; first compound 0.03162 µM): 0.882 | relative viability (NCI-H2170; first compound 0.1 µM): 0.697 | relative viability (NCI-H2170; first compound 0.3162 µM): 0.784 | relative viability (NCI-H2170; first compound 1 µM): 0.824 | relative viability (HCC-827; first compound 0.01 µM): 0.897 | relative viability (HCC-827; first compound 0.03162 µM): 0.848 | relative viability (HCC-827; first compound 0.1 µM): 0.643 | relative viability (HCC-827; first compound 0.3162 µM): 0.779 | relative viability (HCC-827; first compound 1 µM): 0.774 | relative viability (NCI-H1734; first compound 0.01 µM): 0.839 | relative viability (NCI-H1734; first compound 0.03162 µM): 0.819 | relative viability (NCI-H1734; first compound 0.1 µM): 0.631 | relative viability (NCI-H1734; first compound 0.3162 µM): 0.773 | relative viability (NCI-H1734; first compound 1 µM): 0.819 | relative viability (NCI-H1355; first compound 0.01 µM): 0.681 | relative viability (NCI-H1355; first compound 0.03162 µM): 0.613 | relative viability (NCI-H1355; first compound 0.1 µM): 0.598 | relative viability (NCI-H1355; first compound 0.3162 µM): 0.663 | relative viability (NCI-H1355; first compound 1 µM): 0.598 | relative viability (EKVX; first compound 0.01 µM): 0.723 | relative viability (EKVX; first compound 0.03162 µM): 0.748 | relative viability (EKVX; first compound 0.1 µM): 0.681 | relative viability (EKVX; first compound 0.3162 µM): 0.753 | relative viability (EKVX; first compound 1 µM): 0.736 | relative viability (NCI-H1437; first compound 0.01 µM): 0.822 | relative viability (NCI-H1437; first compound 0.03162 µM): 0.874 | relative viability (NCI-H1437; first compound 0.1 µM): 0.866 | relative viability (NCI-H1437; first compound 0.3162 µM): 0.784 | relative viability (NCI-H1437; first compound 1 µM): 0.806 | relative viability (NCI-H661; first compound 0.01 µM): 0.761 | relative viability (NCI-H661; first compound 0.03162 µM): 0.793 | relative viability (NCI-H661; first compound 0.1 µM): 0.836 | relative viability (NCI-H661; first compound 0.3162 µM): 0.79 | relative viability (NCI-H661; first compound 1 µM): 0.765 | relative viability (NCI-H1993; first compound 0.01 µM): 1.21 | relative viability (NCI-H1993; first compound 0.03162 µM): 0.769 | relative viability (NCI-H1993; first compound 0.1 µM): 0.94 | relative viability (NCI-H1993; first compound 0.3162 µM): 0.851 | relative viability (NCI-H1993; first compound 1 µM): 0.697 | relative viability (SK-MES-1; first compound 0.01 µM): 1.04 | relative viability (SK-MES-1; first compound 0.03162 µM): 1.06 | relative viability (SK-MES-1; first compound 0.1 µM): 1.04 | relative viability (SK-MES-1; first compound 0.3162 µM): 1.04 | relative viability (SK-MES-1; first compound 1 µM): 1.09 | relative viability (NCI-H1395; first compound 0.03162 µM): 0.719 | relative viability (NCI-H1395; first compound 0.1 µM): 0.565 | relative viability (NCI-H1395; first compound 0.3162 µM): 1.05 | relative viability (NCI-H1395; first compound 1 µM): 0.635 | relative viability (NCI-H2342; first compound 0.01 µM): 0.708 | relative viability (NCI-H2342; first compound 0.03162 µM): 0.828 | relative viability (NCI-H2342; first compound 0.1 µM): 0.748 | relative viability (NCI-H2342; first compound 0.3162 µM): 0.729 | relative viability (NCI-H2342; first compound 1 µM): 0.637 | relative viability (HARA; first compound 0.01 µM): 0.409 | relative viability (HARA; first compound 0.03162 µM): 0.588 | relative viability (HARA; first compound 0.1 µM): 0.543 | relative viability (HARA; first compound 0.3162 µM): 0.546 | relative viability (HARA; first compound 1 µM): 0.46 | relative viability (NCI-H522; first compound 0.01 µM): 0.986 | relative viability (NCI-H522; first compound 0.03162 µM): 0.932 | relative viability (NCI-H522; first compound 0.1 µM): 0.864 | relative viability (NCI-H522; first compound 0.3162 µM): 0.873 | relative viability (NCI-H522; first compound 1 µM): 0.666 | relative viability (LOU-NH91; first compound 0.01 µM): 0.623 | relative viability (LOU-NH91; first compound 0.03162 µM): 0.881 | relative viability (LOU-NH91; first compound 0.1 µM): 0.894 | relative viability (LOU-NH91; first compound 0.3162 µM): 1.04 | relative viability (LOU-NH91; first compound 1 µM): 0.904 | relative viability (NCI-H2087; first compound 0.01 µM): 0.474 | relative viability (NCI-H2087; first compound 0.03162 µM): 0.637 | relative viability (NCI-H2087; first compound 0.1 µM): 0.8 | relative viability (NCI-H2087; first compound 0.3162 µM): 0.64 | relative viability (NCI-H2087; first compound 1 µM): 0.745 | relative viability (NCI-H2405; first compound 0.01 µM): 1.01 | relative viability (NCI-H2405; first compound 0.03162 µM): 1.04 | relative viability (NCI-H2405; first compound 0.1 µM): 1.04 | relative viability (NCI-H2405; first compound 0.3162 µM): 1.01 | relative viability (NCI-H2405; first compound 1 µM): 0.736 | relative viability (BEN; first compound 0.01 µM): 0.56 | relative viability (BEN; first compound 0.03162 µM): 0.627 | relative viability (BEN; first compound 0.1 µM): 0.49 | relative viability (BEN; first compound 0.3162 µM): 0.583 | relative viability (BEN; first compound 1 µM): 0.655 | relative viability (NCI-H2009; first compound 0.01 µM): 0.715 | relative viability (NCI-H2009; first compound 0.03162 µM): 0.727 | relative viability (NCI-H2009; first compound 0.1 µM): 0.696 | relative viability (NCI-H2009; first compound 0.3162 µM): 0.761 | relative viability (NCI-H2009; first compound 1 µM): 0.7
